Experiments:
Assay in all cases: cells
A-375 = format: functional, cell-based, Homo sapiens; settings: Homo sapiens, A-375;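 further: growth inhibition of A375 cells, read out with a cell viability assay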
Description: SANGER: Inhibition of human A375 cell growth in a cell viability assay.

U-118-MG = format: functional, cell-based, Homo sapiens; settings: Homo sapiens, U-118-MG
Description: SANGER: Inhibition of human U-118-MG cell growth in a cell viability assay.

MOLT-4 = format: functional, cell-based; settings: Homo sapiens;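 further: growth inhibition of MOLT-4 cells, determined with a cell viability readout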
Description: SANGER: Inhibition of human MOLT-4 cell growth in a cell viability assay.

HTC-C3 = format: functional, cell-based, Homo sapiens; settings: Homo sapiens, HTC-C3;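 further: inhibition of cell growth, read out with a cell viability assay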
Description: SANGER: Inhibition of human HTC-C3 cell growth in a cell viability assay.

SNU-5 = format: functional, cell-based; settings: Homo sapiens;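 further: cell viability readout used to measure growth inhibition in human NCI-SNU-5 cells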
Description: SANGER: Inhibition of human NCI-SNU-5 cell growth in a cell viability assay.

CAKI-1 = format: functional, cell-based, Homo sapiens; settings: Homo sapiens, CAKI-1;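 further: growth inhibition of CAKI-1 cells, measured by a cell viability assay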
Description: SANGER: Inhibition of human CAKI-1 cell growth in a cell viability assay.

RPMI-8226 = format: functional, cell-based; settings: Homo sapiens
Description: SANGER: Inhibition of human RPMI-8226 cell growth in a cell viability assay.

PA-1 = format: functional, cell-based, Homo sapiens; settings: Homo sapiens, PA-1;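 further: IC50 for suppression of PA-1 cell proliferation, determined with a cell viability read-out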
Description: SANGER: Inhibition of human PA-1 cell growth in a cell viability assay.

SF-268 = format: functional, cell-based, Homo sapiens; settings: Homo sapiens, SF-268;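 further: growth inhibition of SF-268 cells determined with a cell viability assay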
Description: SANGER: Inhibition of human SF268 cell growth in a cell viability assay.

Ramos-2G6-4C10 = format: functional, cell-based; settings: Homo sapiens;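 further: growth inhibition of the cell line, measured by a cell viability read-out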
Description: SANGER: Inhibition of human Ramos-2G6-4C10 cell growth in a cell viability assay.

NCI-H1437 = format: functional, cell-based, Homo sapiens; settings: Homo sapiens, NCI-H1437;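 further: growth inhibition of human NCI-H1437 cells, read out by a cell viability assay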
Description: SANGER: Inhibition of human NCI-H1437 cell growth in a cell viability assay.

NCI-H441 = format: functional, cell-based; settings: Homo sapiens;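 further: growth inhibition of NCI-H441 cells, read out with a cell viability assay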
Description: SANGER: Inhibition of human NCI-H441 cell growth in a cell viability assay.

CW-2 = format: functional, cell-based, Homo sapiens; settings: Homo sapiens, CW-2;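 further: growth inhibition of CW-2 cells, read out by a cell viability assay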
Description: SANGER: Inhibition of human CW-2 cell growth in a cell viability assay.

MEG-01 = format: functional, cell-based; settings: Homo sapiens;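 further: growth inhibition of MEG-01 cells, read out by a cell viability assay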
Description: SANGER: Inhibition of human MEG-01 cell growth in a cell viability assay.

J82 = format: functional, cell-based; settings: Homo sapiens;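 further: growth inhibition of J82 cells, read out with a cell viability assay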
Description: SANGER: Inhibition of human J82 cell growth in a cell viability assay.

T98G = format: functional, cell-based, Homo sapiens; settings: Homo sapiens, T98G;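 further: growth inhibition of T98G cells, read out by a cell viability assay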
Description: SANGER: Inhibition of human T98G cell growth in a cell viability assay.

ES4 = format: functional, cell-based, Homo sapiens; settings: Homo sapiens, ES4;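 further: growth inhibition of human ES4 cells, read out by a cell viability assay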
Description: SANGER: Inhibition of human ES4 cell growth in a cell viability assay.

ME-180 = format: functional, cell-based; settings: Homo sapiens;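 further: cell viability assay measuring growth inhibition of ME-180 cells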
Description: SANGER: Inhibition of human ME-180 cell growth in a cell viability assay.

COLO-684 = format: functional, cell-based; settings: Homo sapiens
Description: SANGER: Inhibition of human COLO-684 cell growth in a cell viability assay.

HOP-92 = format: functional, cell-based, Homo sapiens; settings: Homo sapiens, HOP-92;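 further: cell viability readout, with IC50 reflecting inhibition of HOP-92 cell growth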
Description: SANGER: Inhibition of human HOP-92 cell growth in a cell viability assay.

CP66-MEL = format: functional, cell-based, Homo sapiens; settings: Homo sapiens, CP66-MEL;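 further: growth inhibition of CP66-MEL cells determined in a cell viability assay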
Description: SANGER: Inhibition of human CP66-MEL cell growth in a cell viability assay.

HCC1569 = format: functional, cell-based, Homo sapiens; settings: Homo sapiens, HCC1569;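 further: growth inhibition of human HCC1569 cells, read out with a cell viability assay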
Description: SANGER: Inhibition of human HCC1569 cell growth in a cell viability assay.

EFO-21 = format: functional, cell-based, Homo sapiens; settings: Homo sapiens, EFO-21;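 further: growth inhibition of EFO-21 cells measured with a viability assay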
Description: SANGER: Inhibition of human EFO-21 cell growth in a cell viability assay.

SW1990 = format: functional, cell-based, Homo sapiens; settings: Homo sapiens, SW1990;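 further: cell growth inhibition determined with a viability assay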
Description: SANGER: Inhibition of human SW1990 cell growth in a cell viability assay.

HCC2218 = format: functional, cell-based; settings: Homo sapiens;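 further: cell viability assay read-out, with IC50 given as the concentration that inhibits growth of the cell line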
Description: SANGER: Inhibition of human HCC2218 cell growth in a cell viability assay.

G-402 = format: functional, cell-based, Homo sapiens; settings: Homo sapiens, G-402
Description: SANGER: Inhibition of human G-402 cell growth in a cell viability assay.

SW780 = format: functional, cell-based, Homo sapiens; settings: Homo sapiens, SW780;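 further: growth inhibition of the cells, read out with a cell viability assay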
Description: SANGER: Inhibition of human SW780 cell growth in a cell viability assay.

SNU1 = format: functional, cell-based; settings: Homo sapiens;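 further: growth inhibition of human NCI-SNU-1 cells, measured with a cell viability assay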
Description: SANGER: Inhibition of human NCI-SNU-1 cell growth in a cell viability assay.

BFTC-909 = format: functional, cell-based, Homo sapiens; settings: Homo sapiens, BFTC-909
Description: SANGER: Inhibition of human BFTC-909 cell growth in a cell viability assay.

NCI-H510A = format: functional, cell-based; settings: Homo sapiens;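 further: growth inhibition of NCI-H510A cells, read out with a cell viability assay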
Description: SANGER: Inhibition of human NCI-H510A cell growth in a cell viability assay.

KYSE-150 cell line = format: functional, cell-based, Homo sapiens; settings: Homo sapiens, KYSE-150;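 further: growth inhibition of human KYSE-150 cells, read out with a cell viability assay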
Description: SANGER: Inhibition of human KYSE-150 cell growth in a cell viability assay.

NCI-H446 = format: functional, cell-based; settings: Homo sapiens;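 further: growth inhibition of NCI-H446 cells determined by a cell viability assay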
Description: SANGER: Inhibition of human NCI-H446 cell growth in a cell viability assay.

JAR = format: functional, cell-based, Homo sapiens; settings: Homo sapiens, JAR;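 further: growth inhibition of human JAR cells determined with a cell viability assay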
Description: SANGER: Inhibition of human JAR cell growth in a cell viability assay.

HCC 2998 = format: functional, cell-based, Homo sapiens; settings: Homo sapiens, HCC 2998;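 further: growth inhibition of human HCC2998 cells, measured with a cell viability read-out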
Description: SANGER: Inhibition of human HCC2998 cell growth in a cell viability assay.

NCI-H520 = format: functional, cell-based, Homo sapiens; settings: Homo sapiens, NCI-H520;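 further: growth inhibition of NCI-H520 cells, measured by a cell viability assay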
Description: SANGER: Inhibition of human NCI-H520 cell growth in a cell viability assay.

NOS-1 = format: functional, cell-based, Homo sapiens; settings: Homo sapiens, NOS-1;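 further: growth inhibition of the human NOS-1 cell line, read out with a cell viability assay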
Description: SANGER: Inhibition of human NOS-1 cell growth in a cell viability assay.

LXF-289 cell line = format: functional, cell-based, Homo sapiens; settings: Homo sapiens, LXF-289
Description: SANGER: Inhibition of human LXF-289 cell growth in a cell viability assay.

MDA-MB-175-VII = format: functional, cell-based, Homo sapiens; settings: Homo sapiens, MDA-MB-175-VII
COLO-741 = format: functional, cell-based, Homo sapiens; settings: Homo sapiens, COLO-741
Description: SANGER: Inhibition of human COLO-741 cell growth in a cell viability assay.

BPH-1 = format: functional, cell-based, Homo sapiens; settings: Homo sapiens, BPH-1;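 further: cell viability assay measuring growth inhibition of human BPH-1 cells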
Description: SANGER: Inhibition of human BPH-1 cell growth in a cell viability assay.

T47D = format: functional, cell-based, Homo sapiens; settings: Homo sapiens, T47D;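 further: growth inhibition of human T47D cells, measured with a cell viability assay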
Description: SANGER: Inhibition of human T47D cell growth in a cell viability assay.

ACHN = format: functional, cell-based, Homo sapiens; settings: Homo sapiens, ACHN;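 further: cell viability read-out used to gauge how strongly growth of human ACHN cells is suppressed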
Description: SANGER: Inhibition of human ACHN cell growth in a cell viability assay.

MIA PaCa-2 = format: functional, cell-based, Homo sapiens; settings: Homo sapiens, MIA PaCa-2;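 further: growth inhibition of MIA PaCa-2 cells, read out with a cell viability assay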
Description: SANGER: Inhibition of human MIA-PaCa-2 cell growth in a cell viability assay.

HD-MY-Z = format: functional, cell-based, Homo sapiens; settings: Homo sapiens, HD-MY-Z;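 further: growth inhibition of HD-MY-Z cells, read out with a cell viability assay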
Description: SANGER: Inhibition of human HD-MY-Z cell growth in a cell viability assay.

VA-ES-BJ = format: functional, cell-based, Homo sapiens; settings: Homo sapiens, VA-ES-BJ;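 further: growth inhibition of the VA-ES-BJ cell line, read out by a cell viability assay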
Description: SANGER: Inhibition of human VA-ES-BJ cell growth in a cell viability assay.

SW48 = format: functional, cell-based, Homo sapiens; settings: Homo sapiens, SW48;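 further: growth inhibition of SW48 cells, read out with a cell viability assay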
Description: SANGER: Inhibition of human SW48 cell growth in a cell viability assay.

MFH-ino = format: functional, cell-based; settings: Homo sapiens;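 further: growth inhibition of human MFH-ino cells, read out by a cell viability assay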
Description: SANGER: Inhibition of human MFH-ino cell growth in a cell viability assay.

RMG-I = format: functional, cell-based, Homo sapiens; settings: Homo sapiens, RMG-I;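 further: growth inhibition of human RMG-I cells, read out with a cell viability assay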
Description: SANGER: Inhibition of human RMG-I cell growth in a cell viability assay.

639-V = format: functional, cell-based, Homo sapiens; settings: Homo sapiens, 639-V;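 further: growth inhibition of 639-V cells, read out with a cell viability assay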
Description: SANGER: Inhibition of human 639-V cell growth in a cell viability assay.

LU-139 = format: functional, cell-based; settings: Homo sapiens
Description: SANGER: Inhibition of human LU-139 cell growth in a cell viability assay.

IGR-1 = format: functional, cell-based, Homo sapiens; settings: Homo sapiens, IGR-1;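 further: growth inhibition of human IGR-1 cells, read out with a cell viability assay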
Description: SANGER: Inhibition of human IGR-1 cell growth in a cell viability assay.

RCM-1 = format: functional, cell-based, Homo sapiens; settings: Homo sapiens, RCM-1;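 further: growth inhibition of the RCM-1 line, determined with a cell viability readout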
Description: SANGER: Inhibition of human RCM-1 cell growth in a cell viability assay.

In the case of `Nc1ccn([C@@H]2O[C@H](CO)[C@@H](O)[C@@H]2O)c(=O)n1` [CYTARABINE], the IC50 (A-375) is reported as 0.396 µM, the IC50 (U-118-MG) is reported as > 2 µM and the IC50 (MOLT-4) is reported as 0.0897 µM. The IC50 (HTC-C3) was 0.459 µM, the IC50 (SNU-5) was > 2 µM and the IC50 (CAKI-1) was 0.12 µM. For the same compound, the IC50 (RPMI-8226) was > 2 µM, the IC50 (PA-1) was 0.187 µM and the IC50 (SF-268) was 1.36 µM. The IC50 (Ramos-2G6-4C10) was 0.868 µM, the IC50 (NCI-H1437) was 0.798 µM and the IC50 (NCI-H441) was > 2 µM. For the same compound, the IC50 (CW-2) was 0.613 µM, the IC50 (MEG-01) was > 2 µM and the IC50 (J82) was 1.62 µM. For the same compound, the IC50 (T98G) was 1.72 µM, the IC50 (ES4) was 0.214 µM and the IC50 (ME-180) was > 2 µM. For the same compound, the IC50 (COLO-684) was > 2 µM, the IC50 (HOP-92) was 0.354 µM and the IC50 (CP66-MEL) was > 2 µM. For the same compound, the IC50 (HCC1569) was > 2 µM, the IC50 (EFO-21) was 1.55 µM and the IC50 (SW1990) was > 2 µM. For the same compound, the IC50 (HCC2218) was > 2 µM, the IC50 (G-402) was 0.65 µM and the IC50 (SW780) was 1.32 µM. For the same compound, the IC50 (SNU1) was 0.0968 µM, the IC50 (BFTC-909) was 0.357 µM and the IC50 (NCI-H510A) was 0.0683 µM. For the same compound, the IC50 (KYSE-150 cell line) was > 2 µM, the IC50 (NCI-H446) was > 2 µM and the IC50 (JAR) was 0.338 µM. The IC50 (HCC 2998) was > 2 µM, the IC50 (NCI-H520) was > 2 µM and the IC50 (NOS-1) was 1.91 µM. The IC50 (LXF-289 cell line) was 0.251 µM, the IC50 (MDA-MB-175-VII) was 1.99 µM and the IC50 (COLO-741) was > 2 µM. For the same compound, the IC50 (BPH-1) was > 2 µM, the IC50 (T47D) was > 2 µM and the IC50 (ACHN) was 0.37 µM. It also gave an IC50 (MIA PaCa-2) of 1.49 µM, an IC50 (HD-MY-Z) of 0.745 µM and an IC50 (VA-ES-BJ) of 0.0717 µM. The IC50 (SW48) was 0.366 µM, the IC50 (MFH-ino) was > 2 µM and the IC50 (RMG-I) was > 2 µM. For the same compound, the IC50 (639-V) was > 2 µM, the IC50 (LU-139) was > 2 µM and the IC50 (IGR-1) was 1.78 µM. For the same compound, the IC50 (RCM-1) was > 2 µM.

For `CC(=O)O[C@@]12CO[C@@H]1C[C@H](O)[C@@]1(C)C(=O)[C@H](O)C3=C(C)[C@@H](OC(=O)[C@H](O)[C@@H](NC(=O)OC(C)(C)C)c4ccccc4)C[C@@](O)([C@@H](OC(=O)c4ccccc4)[C@H]21)C3(C)C` [DOCETAXEL], the IC50 (A-375) was 0.00121 µM, the IC50 (U-118-MG) was > 0.01 µM and the IC50 (MOLT-4) was 0.00471 µM. For the same compound, the IC50 (HTC-C3) was 0.00285 µM, the IC50 (SNU-5) was 0.00545 µM and the IC50 (CAKI-1) was > 0.01 µM. It also gave an IC50 (RPMI-8226) of 0.00497 µM, an IC50 (PA-1) of 0.000687 µM and an IC50 (SF-268) of 0.00121 µM. For the same compound, the IC50 (Ramos-2G6-4C10) was > 0.01 µM, the IC50 (NCI-H1437) was 0.0026 µM and the IC50 (NCI-H441) was > 0.01 µM. For the same compound, the IC50 (CW-2) was > 0.01 µM, the IC50 (MEG-01) was > 0.01 µM and the IC50 (J82) was > 0.01 µM. For the same compound, the IC50 (T98G) was 0.00117 µM, the IC50 (ES4) was 0.00155 µM and the IC50 (ME-180) was 0.00169 µM. For the same compound, the IC50 (COLO-684) was > 0.01 µM, the IC50 (HOP-92) was 0.0073 µM and the IC50 (CP66-MEL) was 0.003 µM. The IC50 (HCC1569) was > 0.01 µM, the IC50 (EFO-21) was > 0.01 µM and the IC50 (SW1990) was > 0.01 µM. For the same compound, the IC50 (HCC2218) was > 0.01 µM, the IC50 (G-402) was 0.000706 µM and the IC50 (SW780) was 0.000587 µM. It also gave an IC50 (SNU1) of 0.00197 µM, an IC50 (BFTC-909) of 0.00225 µM and an IC50 (NCI-H510A) of 0.000336 µM. For the same compound, the IC50 (KYSE-150 cell line) was 0.00499 µM, the IC50 (NCI-H446) was 0.00243 µM and the IC50 (JAR) was 0.00437 µM. The IC50 (HCC 2998) was 0.00408 µM, the IC50 (NCI-H520) was 0.00372 µM and the IC50 (NOS-1) was > 0.01 µM. For the same compound, the IC50 (LXF-289 cell line) was 0.000758 µM, the IC50 (MDA-MB-175-VII) was > 0.01 µM and the IC50 (COLO-741) was 0.0082 µM. For the same compound, the IC50 (BPH-1) was 0.00102 µM, the IC50 (T47D) was 0.00431 µM and the IC50 (ACHN) was > 0.01 µM. The IC50 (MIA PaCa-2) was 0.00324 µM, the IC50 (HD-MY-Z) was 0.00141 µM and the IC50 (VA-ES-BJ) was 0.000375 µM. For the same compound, the IC50 (SW48) was 0.00101 µM, the IC50 (MFH-ino) was > 0.01 µM and the IC50 (RMG-I) was > 0.01 µM. For the same compound, the IC50 (639-V) was 0.000647 µM, the IC50 (LU-139) was > 0.01 µM and the IC50 (IGR-1) was 0.00641 µM. The IC50 (RCM-1) was > 0.01 µM.

With `COc1cc([C@@H]2c3cc4c(cc3[C@@H](O[C@@H]3O[C@@H]5CO[C@@H](C)O[C@H]5[C@H](O)[C@H]3O)[C@H]3COC(=O)[C@H]23)OCO4)cc(OC)c1O` [ETOPOSIDE] the IC50 (A-375) was 0.631 µM, the IC50 (U-118-MG) was > 16 µM and the IC50 (MOLT-4) was 0.418 µM. The IC50 (HTC-C3) was > 16 µM, the IC50 (SNU-5) was 7.92 µM and the IC50 (CAKI-1) was 6.65 µM. It also gave an IC50 (RPMI-8226) of 14.3 µM, an IC50 (PA-1) of 0.132 µM and an IC50 (SF-268) of 2.55 µM. For the same compound, the IC50 (Ramos-2G6-4C10) was 9.94 µM, the IC50 (NCI-H1437) was 3.38 µM and the IC50 (NCI-H441) was 11.2 µM. For the same compound, the IC50 (CW-2) was > 16 µM, the IC50 (MEG-01) was 4.75 µM and the IC50 (J82) was 3.34 µM. It also gave an IC50 (T98G) of 8.82 µM, an IC50 (ES4) of 0.521 µM and an IC50 (ME-180) of 0.824 µM. For the same compound, the IC50 (COLO-684) was > 16 µM, the IC50 (HOP-92) was 5.02 µM and the IC50 (CP66-MEL) was 6.25 µM. The IC50 (HCC1569) was 3.58 µM, the IC50 (EFO-21) was 11.9 µM and the IC50 (SW1990) was 5.64 µM. For the same compound, the IC50 (HCC2218) was > 16 µM, the IC50 (G-402) was 0.898 µM and the IC50 (SW780) was > 16 µM. It also gave an IC50 (SNU1) of 1.75 µM, an IC50 (BFTC-909) of 1.16 µM and an IC50 (NCI-H510A) of 8.65 µM. For the same compound, the IC50 (KYSE-150 cell line) was 0.53 µM, the IC50 (NCI-H446) was > 16 µM and the IC50 (JAR) was > 16 µM. For the same compound, the IC50 (HCC 2998) was 1.26 µM, the IC50 (NCI-H520) was 8.04 µM and the IC50 (NOS-1) was 3.58 µM. For the same compound, the IC50 (LXF-289 cell line) was 2.08 µM, the IC50 (MDA-MB-175-VII) was > 16 µM and the IC50 (COLO-741) was > 16 µM. It also gave an IC50 (BPH-1) of 0.943 µM, an IC50 (T47D) of 11.7 µM and an IC50 (ACHN) of 0.839 µM. It also gave an IC50 (MIA PaCa-2) of 2.66 µM, an IC50 (HD-MY-Z) of 8.54 µM and an IC50 (VA-ES-BJ) of 0.415 µM. The IC50 (SW48) was 0.869 µM, the IC50 (MFH-ino) was 0.751 µM and the IC50 (RMG-I) was > 16 µM. For the same compound, the IC50 (639-V) was 1.01 µM, the IC50 (LU-139) was 4.01 µM and the IC50 (IGR-1) was 1.59 µM. For the same compound, the IC50 (RCM-1) was > 16 µM.

From ChEMBL document CHEMBL1201861, “Genomics of Drug Sensitity in Cancer screening data, Wellcome Trust Sanger Institute”
